Test results reported in patent US20030228988A1, “Ozone solutions” (Otre AB, priority 2002, published 2003).
Like-named read-outs stand apart in the source and are kept apart here.

How the values were obtained:
[1] = Ozone stability in the presence of acetic and oxalic acid; conditions: for increase of the lifetime of the ozone (factor) compared with pure ozone solution: acid approximately 0.01M, ozone approximately 6 ppm
Experimental: The following procedure was applied in the analysis of ozone concentration. Magnetic stirrer was used to obtain a homogeneous solution. The ozone concentration, pH and temperature were registered every 30 seconds, until ozone no longer could be detected.
An aqueous ozone solution with a concentration of approximately 6 ppm was tapped directly from the ozone generator into a beaker. The ozone electrode was used to register the changes in concentration. Acetic or oxalic acid was added directly to the solution. The concentration of the acids was approximately 0.01M.

[2] = Ozone stability in the presence of different surfactants (ozone electrode); format: physicochemical; conditions: ozone approximately 6 ppm, surfactant approximately 0.1 mM, approximately the same pH
Experimental: Deionised water was used in all aqueous solutions. All experiments were made at room temperature, ˜23° C. The variation of the temperature between the different experiments was relatively small and should not have any significant effect on the outcome. All tests were made at least twice in order to verify the reproducibility. […] Magnetic stirrer was used to obtain a homogeneous solution. […] The concentration of the surfactants was approximately 0.1 mM. […] The solution was filtered to remove the formed precipitate, AgBr.

[3] = Ozone stability in the presence of different concentrations of SDS; format: physicochemical; conditions: 200 mM vs 0.1 mM SDS, ozone approximately 6 ppm
Experimental: One of the surfactants, SDS, was tested at two different concentrations: Low concentration (0.1 mM), where the surfactant exists […], and high concentration (200 mM), where the surfactant exists in the form of both micelles and linear (paraffinic) chains. […] However, in order to obtain these states the surfactant solution has to be heated.
Magnetic stirrer was used to obtain a homogeneous solution.
SDS was added directly to the aqueous ozone solution, yielding solutions having concentrations of 0.1 mM and 200 mM with respect to SDS The result is seen in FIG. 4, namely that the higher concentration of SDS increases the lifetime of ozone by a factor 5 compared with the lower concentration.

[4] = Oxidation of organic acids by ozone, 13C NMR and IR before and after ozone treatment; format: physicochemical; conditions: 0.1M acid bubbled with ozone for five hours
Experimental: The aqueous solutions of the acids were analysed using ^13C NMR and IR spectroscopy before and after treatment with ozone.
In order to verify that the organic acids had not been oxidised by ozone an additional test was made 300 ml of an aqueous solution of acid (0.1M, 30×10^−3 mol) was bubbled with ozone for five hours. The gaseous concentration of ozone was ˜100 g/m^3. The airflow was 0 2 l/minute, which gives 1.2 g ozone/h ([…]). The aqueous solutions were analysed using ^13C NMR and IR spectroscopy before and after treatment with ozone. The results are shown in FIGS. 9-12, namely that the peaks in the spectrograms of the pure acid solutions (FIGS. 9 and 11) had not changed their appearance after prolonged treatment with ozone (FIGS. 10 and 12)

SMILES: CC(=O)O [Acetic acid, acetic acid]
- effect on ozone stability [1]: positive effect on ozone stability
- increase of the lifetime of the ozone (factor) compared with pure ozone solution [1]: 2

SMILES: CCCCCCCCCCCCOS(=O)(=O)[O-].[Na+] [SDS, sodium dodecyl sulphate]
- increase of the lifetime of ozone compared with a pure ozone solution ([2]; ~23° C.): three to four fold
- increase of the lifetime of ozone (factor), higher concentration compared with the lower concentration [3]: 5

SMILES: CCCCCCCCCCCCO[C@@H]1O[C@H](CO)[C@@H](O[C@H]2O[C@H](CO)[C@@H](O)[C@H](O)[C@H]2O)[C@H](O)[C@H]1O [dodecyl b-D-maltoside]
- depletion rate of ozone relative to the depletion rate of pure ozone solution [2]: about half

SMILES: O=C(O)C(=O)O [oxalic acid]
- decomposition / reaction of the acid after treatment with ozone (13C NMR, IR) [4]: does not react with ozone
- effect on ozone stability ([1]; FIGS. 5 and 6): positive effect on ozone stability
- increase of the lifetime of the ozone (factor) compared with pure ozone solution [1]: 2
